Patent US5928666A, “Crystalline form of estradiol and pharmaceutical formulations comprising same” (Cygnus Inc., priority 1997, dated 1999)

Legend:
[1] = Flux of estradiol from equilibrated acrylate adhesive matrices through a 10 mil Silastic membrane (Example 7, Table 2); format: in vitro ADME; conditions: for Flux: 20 wt % acrylate matrix, 10 mil Silastic membrane, 32° C.; for average flux: average from Table 2 data
Protocol: Consequently, Crystal X provides an advantage in the preparation of pharmaceutical formulations comprising Crystal X especially transdermal drug delivery matrices. When Crystal X crystals are prepared in transdernal drug delivery formulations,the inherent increase in activity due to the higher thermodynamic activity of the Crystal X crystal versus E2-HH provides for increased flux. For example, equilibrated matrices containing Crystal X and E2-HH crystals were prepared in substantial accordance with the teaching of Example 7 herein and assayed for permeation through a Silastic membrane.
Measurement of estradiol flux was determined by drug flux through a 10 mil Silastic membrane in a modified Franz diffusion cells in substantial accordance with the following procedure. The adhesive matrix systems were peeled off the polyester release liner and placed on top of the Silastic membrane. Gentle pressure was applied to insure full contact between the drug adhesive layer and membrane. The membrane with the prototype system was then mounted carefully between the donor and the receiver compartments. The receiver compartment was filled nanopure water and the temperature was maintained at 32° C.±1° C. throughout the experimental period. Samples of receiver content was withdrawn and replaced with fresh buffer. Samples were assayed by HPLC.
Membrane flux (mg/cm^2 /hr) was determined by evaluating the cumulative flux of drug through a Silastic membrane over a given period of time and dividing by the time period. After steady state had been established, the flux values corresponding to steady state were averaged to obtain the flux value.
20 wt % acrylate adhesive matrices were prepared in accordance with Example 1. 20 % Crystal X was prepared in accordance with Example 3. The laminates were allowed to equilibrate for a period of 8 weeks to insure complete crystal structureation. Flux was determined as permeation through a 10 mil Silastic membrane as described above. The cumulative release of estradiol into the receiver was determined by HPLC method described above. The average flux over the period was calculated as the cumulative amount of drug in receiver divided by cumulative time.

[2] = cited from earlier work

SMILES	Flux ([1]; 2.5 hrs)	Flux ([1]; 8.375 hrs)	Flux ([1]; 17.625 hrs)	Flux ([1]; 27.75 hrs)	average flux [1]	blood level in hormone replacement therapy ([2]; level the normal dosage is to produce, hormone replacement therapy)	blood level for treatment of osteoporosis ([2]; level utilized, osteoporosis)	flux value at the end of the flux profile relative to E2-HH ([1]; higher than for E2-HH, 32° C. wet)	thermodynamic activity ([1]; versus E2-HH)
C[C@]12CC[C@@H]3c4ccc(O)cc4CC[C@H]3[C@@H]1CC[C@@H]2O [E2-HH]	0.080 μg/cm^2 /hr	0.139 μg/cm^2 /hr	0.142 μg/cm^2 /hr	0.146 μg/cm^2 /hr	0.14 μg/cm^2 /hr				
C[C@]12CC[C@@H]3c4ccc(O)cc4CC[C@H]3[C@@H]1CC[C@@H]2O [estradiol, estra-1, 3, 5(10)-triene-3, 17β-diol]						about 30 ng/L	approximately 40 ng/L		
C[C@]12CC[C@@H]3c4ccc(O)cc4CC[C@H]3[C@@H]1CC[C@@H]2O [Crystal X, estra-1, 3, 5(10)-triene-3, 17β-diol]	0.132 μg/cm^2 /hr	0.238 μg/cm^2 /hr	0.216 μg/cm^2 /hr	0.220 μg/cm^2 /hr	0.22 μg/cm^2 /hr			about 2 times	increased thermodynamic activity with respect to E2-HH
